Source: patent publication US20120225062A1 (priority 2011, published 2012)

Experiments:
Pim 1 = Pim 1 (Homo sapiens, UniProt P11309); assay: Pim 1 AlphaScreen assay (high ATP)
Pim 2 = Pim 2 (Homo sapiens, UniProt Q9P1W9); assay: Pim 2 AlphaScreen assay (high ATP)
Pim 3 = Pim 3 (Homo sapiens, UniProt Q86V86); assay: Pim 3 AlphaScreen assay (high ATP)
Description: The activity of Pim 1, Pim 2, & Pim 3 is measured using a homogeneous bead based system quantifying the amount of phosphorylated peptide substrate resulting from kinase-catalyzed phosphoryl transfer to a peptide substrate. Compounds to be tested are dissolved in 100% DMSO and directly distributed to a white 384-well plate at 0.25 μl per well. […] This is followed by the addition of 5 μl/well of Pim 1, Pim 2 or Pim 3 kinase in assay buffer (concentrations described below). Final assay concentrations (described below) are in 2.5% DMSO. The reactions are performed for ˜2 hours, then stopped by the addition of 10 μl of 0.75 μg/ml anti-phospho Ser/Thr antibody (Cell Signaling), 10 μg/ml Protein A AlphaScreen beads (Perkin Elmer), and 10 μg/ml streptavidin coated AlphaScreen beads in stop/detection buffer (50 mM EDTA, 95 mM Tris, pH=7.5, 0.01% Tween-20). The stopped reactions are incubated overnight in the dark. The phosphorylated peptide is detected via an oxygen anion initiated chemiluminescence/fluorescence cascade using the Envision plate reader (Perkin Elmer).

[1] = system: KMS11 (human myeloma cell line); assay: Cell Proliferation Assay (CellTiter-Glo, 3 days); type: cell-based; settings: KMS-11, 72 h, KMS11-luc cells
Description: KMS11 (human myeloma cell line), were cultured in IMDM supplemented with 10% FBS, sodium pyruvate and antibiotics. Cells were plated in the same medium at a density of 2000 cells per well into 96 well tissue culture plates, with outside wells vacant, on the day of assay.
Test compounds supplied in DMSO were diluted into DMSO at 500 times the desired final concentrations before dilution into culture media to 2 times final concentrations. Equal volumes of 2× compounds were added to the cells in 96 well plates and incubated at 37° C. for 3 days.
After 3 days plates were equilibrated to room temperature and equal volume of CellTiter-Glow Reagent (Promega) was added to the culture wells. The plates were agitated briefly and luminescent signal was measured with luminometer.
Using the procedures of Cell Proliferation Assay, the EC50 concentrations of compounds of the examples were determined in KMS11 cells as shown in Table 4.

Chain of Pim 2 (Q9P1W9 whole entry): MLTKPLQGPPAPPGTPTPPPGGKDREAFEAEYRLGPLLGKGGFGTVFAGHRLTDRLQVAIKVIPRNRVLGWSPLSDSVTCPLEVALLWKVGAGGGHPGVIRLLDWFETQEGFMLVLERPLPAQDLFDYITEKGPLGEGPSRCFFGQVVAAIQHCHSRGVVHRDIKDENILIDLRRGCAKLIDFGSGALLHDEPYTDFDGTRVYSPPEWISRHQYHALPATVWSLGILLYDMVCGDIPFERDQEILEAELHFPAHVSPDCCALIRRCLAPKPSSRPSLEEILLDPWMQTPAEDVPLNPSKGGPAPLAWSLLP
Chain of Pim 1 (P11309 whole entry): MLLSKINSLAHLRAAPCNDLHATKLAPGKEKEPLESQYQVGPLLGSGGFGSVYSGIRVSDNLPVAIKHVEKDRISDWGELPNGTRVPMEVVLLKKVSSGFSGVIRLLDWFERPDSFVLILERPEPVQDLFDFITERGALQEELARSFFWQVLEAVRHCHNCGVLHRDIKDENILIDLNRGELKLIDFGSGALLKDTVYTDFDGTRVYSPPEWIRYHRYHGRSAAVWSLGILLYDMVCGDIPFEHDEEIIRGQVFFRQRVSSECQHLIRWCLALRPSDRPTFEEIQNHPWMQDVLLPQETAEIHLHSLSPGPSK

`C[C@@H]1C[C@H](N)C[C@H](c2ccncc2NC(=O)c2ccc(F)c(-c3c(F)cc(OC[C@H](O)CO)cc3F)n2)C1` [Example 2, N-(4-((1R,3S,5S)-3-amino-5-methylcyclohexyl)pyridin-3-yl)-6-(4-((R)-2,3-dihydroxypropoxy)-2,6-difluorophenyl)-5-fluoropicolinamide] was tested, and the IC50 (Pim 1) was 0.01 nM, the IC50 (Pim 2) was 2.99 nM and the IC50 (Pim 3) was 0.57 nM.
With `C[C@H]1CN(c2ccncc2NC(=O)c2ccc(F)c(-c3c(F)ccc(OCCO)c3F)n2)C[C@@H](N)[C@@H]1O` [Example 31, N-(4-((3R,4R,5S)-3-amino-4-hydroxy-5-methylpiperidin-1-yl)pyridin-3-yl)-6-(2,6-difluoro-3-(2-hydroxyethoxy)phenyl)-5-fluoropicolinamide] the EC50 [1] was 12 nM and the IC50 (Pim 2) was 1.36 nM.
With `C[C@@H]1C[C@H](N)C[C@H](c2ccncc2NC(=O)c2ccc(F)c(-c3c(F)cc(C4(O)COC4)cc3F)n2)C1` [Example 55, N-(4-((1R,3S,5S)-3-amino-5-methylcyclohexyl)pyridin-3-yl)-6-(2,6-difluoro-4-(3-hydroxyoxetan-3-yl)phenyl)-5-fluoropicolinamide] the EC50 [1] was 24 nM, the IC50 (Pim 1) was 0.02 nM and the IC50 (Pim 2) was 2.42 nM.
In the case of `C[C@H]1C[C@@H](c2ccncc2NC(=O)c2nc(-c3c(F)cc(OC4CCOCC4)cc3F)c(F)cc2N)C[C@@H](N)[C@@H]1O` [Example 87, 3-amino-N-(4-((1R,3R,4R,5S)-3-amino-4-hydroxy-5-methylcyclohexyl)pyridin-3-yl)-6-(2,6-difluoro-4-(tetrahydro-2H-pyran-4-yloxy)phenyl)-5-fluoropicolinamide], the EC50 [1] is reported as 31 nM and the IC50 (Pim 2) is reported as 1.46 nM.
With `CC(C)[C@@H]1C[C@H](N)C[C@H](c2ccncc2NC(=O)c2ccc(F)c(-c3c(F)cc(OC4CCOCC4)cc3F)n2)C1` [Example 110, N-(4-((1R,3S,5S)-3-amino-5-isopropylcyclohexyl)pyridin-3-yl)-6-(2,6-difluoro-4-(tetrahydro-2H-pyran-4-yloxy)phenyl)-5-fluoropicolinamide] the IC50 (Pim 1) was 0.01 nM, the IC50 (Pim 2) was 0.95 nM and the IC50 (Pim 3) was 0.25 nM.
In the case of `CC(C)[C@@H]1C[C@H](N)C[C@H](c2ccncc2NC(=O)c2ccc(F)c(-c3c(F)cc(C4(O)COC4)cc3F)n2)C1` [Example 111, N-(4-((1R,3S,5S)-3-amino-5-isopropylcyclohexyl)pyridin-3-yl)-6-(2,6-difluoro-4-(3-hydroxyoxetan-3-yl)phenyl)-5-fluoropicolinamide], the IC50 (Pim 1) is reported as 0.01 nM, the IC50 (Pim 2) is reported as 0.76 nM and the IC50 (Pim 3) is reported as 0.61 nM.
Compound `COC1(c2cc(F)c(-c3nc(C(=O)Nc4cnccc4N4C[C@@H](N)[C@H](O)[C@@H](C)C4)c(N)cc3F)c(F)c2)COC1` [Example 112, 3-amino-N-(4-((3R,4R,5S)-3-amino-4-hydroxy-5-methylpiperidin-1-yl)pyridin-3-yl)-6-(2,6-difluoro-4-(3-methoxyoxetan-3-yl)phenyl)-5-fluoropicolinamide] has an IC50 (Pim 1) of 0.01 nM, an IC50 (Pim 2) of 0.48 nM and an IC50 (Pim 3) of 0.21 nM.
`COC(C)(C)c1cc(F)c(-c2nc(C(=O)Nc3cnccc3[C@@H]3C[C@H](C)C[C@H](N)C3)c(N)cc2F)c(F)c1` [Example 113, 3-amino-N-(4-((1R,3S,5S)-3-amino-5-methylcyclohexyl)pyridin-3-yl)-6-(2,6-difluoro-4-(2-methoxypropan-2-yl)phenyl)-5-fluoropicolinamide] showed an IC50 (Pim 1) of 0.02 nM, an IC50 (Pim 2) of 1.51 nM and an IC50 (Pim 3) of 0.73 nM.
In the case of `C[C@@H]1C[C@H](N)C[C@H](c2ccncc2NC(=O)c2ccc(F)c(-c3c(F)cc(CN4CCCC4=O)cc3F)n2)C1` [Example 144, N-(4-((1R,3S,5S)-3-amino-5-methylcyclohexyl)pyridin-3-yl)-6-(2,6-difluoro-4-((2-oxopyrrolidin-1-yl)methyl)phenyl)-5-fluoropicolinamide], the EC50 [1] is reported as 55 nM and the IC50 (Pim 2) is reported as 2.61 nM.
Work on `C[C@@H]1C[C@H](N)C[C@H](c2ccncc2NC(=O)c2ccc(F)c(-c3c(F)cc(C4=CCCC4)cc3F)n2)C1` [Example 160] yielded an EC50 [1] of 285 nM, an IC50 (Pim 1) of 0.02 nM and an IC50 (Pim 2) of 3.74 nM.
`CC(C)[C@@H]1C[C@H](N)C[C@H](c2ccncc2NC(=O)c2ccc(F)c(-c3c(F)cc(OC4COC4)cc3F)n2)C1` [Example 183, N-(4-((1R,3S,5S)-3-amino-5-isopropylcyclohexyl)pyridin-3-yl)-6-(2,6-difluoro-4-(oxetan-3-yloxy)phenyl)-5-fluoropicolinamide] gave an EC50 [1] of 158 nM and an IC50 (Pim 2) of 0.93 nM.
`CC(C)c1cc(F)c(-c2nc(C(=O)Nc3cnccc3[C@H]3C[C@@H](N)[C@H](O)[C@@H](C)C3)ccc2F)c(F)c1` [Example 199, N-(4-((1R,3R,4R,5S)-3-amino-4-hydroxy-5-methylcyclohexyl)pyridin-3-yl)-6-(2,6-difluoro-4-isopropylphenyl)-5-fluoropicolinamide] gave an EC50 [1] of 204 nM.
In the case of `C[C@@H]1C[C@H](N)C[C@H](c2ccncc2NC(=O)c2ccc(F)c(-c3c(F)cc(Cl)cc3F)n2)C1` [Example 208, N-(4-((1R,3S,5S)-3-amino-5-methylcyclohexyl)pyridin-3-yl)-6-(4-chloro-2,6-difluorophenyl)-5-fluoropicolinamide], the EC50 [1] is reported as 363 nM.
With `C[C@@H]1C[C@H](N)C[C@H](c2ccncc2NC(=O)c2ccc(F)c(-c3c(F)cc(F)cc3F)n2)C1` [Example 209, N-(4-((1R,3S,5S)-3-amino-5-methylcyclohexyl)pyridin-3-yl)-5-fluoro-6-(2,4,6-trifluorophenyl)picolinamide] the EC50 [1] was 262 nM.
Work on `C[C@H]1CN(c2ccncc2NC(=O)c2ccc(F)c(-c3c(F)cc(Cl)cc3F)n2)C[C@@H](N)[C@@H]1O` [Example 217, N-(4-((3R,4R,5S)-3-amino-4-hydroxy-5-methylpiperidin-1-yl)pyridin-3-yl)-6-(4-chloro-2,6-difluorophenyl)-5-fluoropicolinamide] yielded an EC50 [1] of 62 nM.
For `C[C@H]1CN(c2ccncc2NC(=O)c2ccc(F)c(-c3c(F)cc(F)cc3F)n2)C[C@@H](N)[C@@H]1O` [Example 218, N-(4-((3R,4R,5S)-3-amino-4-hydroxy-5-methylpiperidin-1-yl)pyridin-3-yl)-5-fluoro-6-(2,4,6-trifluorophenyl)picolinamide], the EC50 [1] was 23 nM.
`CSc1cc(F)c(-c2nc(C(=O)Nc3cnccc3[C@@H]3C[C@H](C)C[C@H](N)C3)ccc2F)c(F)c1` [Example 223, N-(4-((1R,3S,5S)-3-amino-5-methylcyclohexyl)pyridin-3-yl)-6-(2,6-difluoro-4-(methylthio)phenyl)-5-fluoropicolinamide] showed an EC50 [1] of 169 nM.
Work on `C[C@@H]1C[C@H](N)C[C@H](c2ccncc2NC(=O)c2ccc(F)c(-c3c(F)cc(CO)cc3F)n2)C1` [Example 224, N-(4-((1R,3S,5S)-3-amino-5-methylcyclohexyl)pyridin-3-yl)-6-(2,6-difluoro-4-(hydroxymethyl)phenyl)-5-fluoropicolinamide] yielded an EC50 [1] of 64 nM.
For `CCc1cc(F)c(-c2nc(C(=O)Nc3cnccc3[C@@H]3C[C@H](C)C[C@H](N)C3)ccc2F)c(F)c1` [Example 230, N-(4-((1R,3S,5S)-3-amino-5-methylcyclohexyl)pyridin-3-yl)-6-(4-ethyl-2,6-difluorophenyl)-5-fluoropicolinamide], the EC50 [1] was 62 nM.
`C[C@@H]1C[C@H](N)C[C@H](c2ccncc2NC(=O)c2ccc(F)c(-c3c(F)cc(C(C)(C)O)cc3F)n2)C1` [Example 236, N-(4-((1R,3S,5S)-3-amino-5-methylcyclohexyl)pyridin-3-yl)-6-(2,6-difluoro-4-(2-hydroxypropan-2-yl)phenyl)-5-fluoropicolinamide] gave an EC50 [1] of 13 nM.
